US20210169837A1, “COMPOSITION FOR REDUCING NEW-ONSET DIABETES” (MOCHIDA PHARMACEUTICAL CO., LTD., priority 2012, published 2021)

What was measured:
[1] = test system: Human fetal rhabdomyosarcoma cell line (RD cell, ATCC); assay: 2-3H-deoxyglucose uptake by differentiated skeletal muscle cells; assay type: cell-based; conditions: for Uptake of radioactivity (2-3H-deoxyglucose) per 1 μg of protein: statin = 30 μM simvastatin, EPA = 50 μM sodium eicosapentate
Protocol: (1) Human fetal rhabdomyosarcoma cell line (RD cell, ATCC) was inoculated in 24 well plate and cultured in a growth medium (10% fetal bovine serum (FCS), Dulbecco's modified Eagle medium (DMEM), low glucose, 1% nonessential amino acid) to confluency. (2) The cells were then cultivated in differentiation medium (2% horse serum (HS), Dulbecco's modified Eagle medium (DMEM), low glucose, 1% nonessential amino acid) for 3 to 5 days for differentiation into muscle cell.
(3) After the incubation, the medium was removed by aspiration, and the cells were incubated in an uptake buffer (140 mM NaCl, 5 mM KCl, 2.5 mM MgSO4, 20 mM HEPES, 1 mM CaCl2, pH=7.4) supplemented with 10 μM of 2-3H-deoxyglucose at 37° C. for 12 minutes. (4) After the incubation, the cells were washed 4 times with cold stop solution (PBS(−)supplemented with 10 mM glucose).
The PBS(−) contained 0.2 g of NaH2PO4.2H2O, 3.225 g of Na2HPO4.12H2O, and 8 g of NaCl in 1 L, and the pH was at 7.2 to 7.4.
(5) After the washing, 500 μL/well of aqueous solution of 0.4N sodium hydroxide was added, and the cells were lyzed by heating to 56° for 20 minutes. (6) 300 μL of the well content (cell lysate) was mixed with 4 mL of Atomlight (manufactured by PerkinElmer), and ^3H count was measured with a liquid scintillation counter. The well content (cell lysate) was also measured for its protein concentration to calculate the ^3H count per 1 μg of the protein.
FIG. 1 is the graph showing the uptake of radioactivity (y axis) in relation to the incubation time (x axis) for each group.

[2] = test system: aged people of at least 66 years old administered with statin; conditions: compared to the case of pravastatin; cited from earlier work

**Q.** For `CCC(C)(C)C(=O)O[C@H]1C[C@@H](C)C=C2C=C[C@H](C)[C@H](CC[C@@H]3C[C@@H](O)CC(=O)O3)[C@H]21` [Statin, simvastatin], which “rate of decrease of radioactivity uptake” value ([1]; 48 hr of incubation, vs control group, 30 μM simvastatin (with or without 50 μM EPA)) is on record?
**A.** about 73%

**Q.** And the “Uptake of radioactivity (2-3H-deoxyglucose) per 1 μg of protein” value (from here on “Uptake … per 1 μg of protein”) ([1]; incubation time 1 hr)?
**A.** 563 dpm/μg protein

**Q.** And the “Uptake … per 1 μg of protein” value ([1]; incubation time 6 hr)?
**A.** 489 dpm/μg protein

**Q.** And the “Uptake … per 1 μg of protein” value ([1]; incubation time 24 hr)?
**A.** 343 dpm/μg protein

**Q.** What about the “Uptake … per 1 μg of protein” value ([1]; incubation time 48 hr) of the same molecule?
**A.** 170 dpm/μg protein

**Q.** For `CC(C)c1c(C(=O)Nc2ccccc2)c(-c2ccccc2)c(-c2ccc(F)cc2)n1CC[C@@H](O)C[C@@H](O)CC(=O)O` [atorvastatin], which “risk of the incidence of the diabetes compared to pravastatin” value (shortened to “risk … compared to pravastatin”) [2] is on record?
**A.** significantly increased

**Q.** Which “risk … compared to pravastatin” value [2] does the source give for `CC[C@H](C)C(=O)O[C@H]1C[C@@H](C)C=C2C=C[C@H](C)[C@H](CC[C@@H]3C[C@@H](O)CC(=O)O3)[C@H]21` [lovastatin] here?
**A.** no significant difference

**Q.** Which “risk … compared to pravastatin” value [2] does the source give for `CC(C)c1nc(N(C)S(C)(=O)=O)nc(-c2ccc(F)cc2)c1/C=C/[C@@H](O)C[C@@H](O)CC(=O)O` [rosuvastatin] here?
**A.** significantly increased
